Test [1] concerns T. cruzi (Tulahuen strain). Put plainly: microbe, parasite or virus in culture. It counts as cell-based, Trypanosoma cruzi. Particulars: Trypanosoma cruzi, TULAHUEN, Fibroblast; for activity at 10 µM: 120 h, read-out: T. cruzi % growth @ 10 uM (Amastigotes); for pEC50: Table S2, amastigotes, read-out: T. cruzi EC50. As for the experimental part: Compounds were tested against T. cruzi (Tulahuen strain) stably expressing the beta-galactosidase gene as previously described. […] Fibroblasts were plated at a density of 2×10^3 per well in 96 well tissue culture plates. After 24 hours of incubation, 1×10^4 trypomastigotes/well were added to the fibroblasts and incubated for 4 hours before addition of the test compounds from the Spectrum Collection (10 µM final concentration). Cultures were incubated at 37°C for 5 days, then developed with chlorophenol red β-D-galactopyranoside as previously described. The percent inhibition is reported with standard deviation of the mean. […] Z-prime values were calculated for each 96-well plate based on positive (4 wells) and negative controls (4 wells).

In test [2] the test system is 3T3 fibroblast cells. As to the kind of experiment: cells. It counts as cell-based, murine. The note with it: Mus musculus, NIH3T3, 72 h, read-out: Mammalian (3T3) cell % growth at 10 uM.

pEC50: −log10 of the molar value. Structures can show the parent of a compound that is named as a salt. Where two headings read alike, the source gives them in different places.

This note sets out measurements from paper PMC4102417 (PLoS Neglected Tropical Diseases, 2014).

As usually defined, the EC50 is the concentration at which the effect is half-maximal. Usually pEC50 stands for −log10 of the EC50, conventionally taken in molar units.

For the compound `CCC(=O)O[C@H]1CC[C@H]2[C@@H]3CCc4cc(O)ccc4[C@H]3CC[C@]12C` [ESTRADIOL PROPIONATE, (1S,10R,11S,14S,15S)-5-hydroxy-15-methyltetracyclo[8.7.0.0^{2,7}.0^{11,15}]heptadeca-2,4,6-trien-14-yl propanoate], the activity at 10 µM in test [1] (10 uM, Table S2) turned out to be 20.3%; in test [2] (10 uM, Table S2), 100%.
With `CCCCCCCCCCCCCC(=O)O[C@@H]1[C@@H](C)[C@@]2(O)[C@@H](C=C(CO)C[C@]3(O)C(=O)C(C)=C[C@@H]23)[C@@H]2C(C)(C)[C@]12OC(C)=O` [PHORBOL MYRISTATE ACETATE, (1S,2S,6R,10S,11R,13S,14R,15R)-13-(acetyloxy)-1,6-dihydroxy-8-(hydroxymethyl)-4,12,12,15-tetramethyl-5-oxotetracyclo[8.5.0.0^{2,6}.0^{11,13}]pentadeca-3,8-dien-14-yl tetradecanoate], the activity at 10 µM in test [1] (10 uM, Table S2) was 5.6%; in test [2] (10 uM, Table S2), 89.2%.
Take `CNCCC=C1c2ccccc2CCc2ccccc21` [NORTRIPTYLINE, methyl(3-{tricyclo[9.4.0.0^{3,8}]pentadeca-1(15),3,5,7,11,13-hexaen-2-ylidene}propyl)amine]: the activity at 10 µM was determined as 9.7% in test [1] and 100% in test [2]. In addition, the EC50 in test [1] (read-out: T. cruzi EC50 (nM)) turned out to be 5180 nM.
Regarding `CC(C)c1c(O)ccc2c1CCC1C(C)(C)CCCC21C` (centres unmarked) [TOTAROL, 4b,8,8-trimethyl-1-(propan-2-yl)-4b,5,6,7,8,8a,9,10-octahydrophenanthren-2-ol], the activity at 10 µM in test [1] (10 uM, Table S2) turned out to be 21.3%; in test [2] (10 uM, Table S2) it was 67.4%.
For `CCCC(C(=O)OCCN(CC)CC)(c1ccccc1)c1ccccc1` [PROADIFEN, 2-(diethylamino)ethyl 2,2-diphenylpentanoate], the activity at 10 µM in test [1] (10 uM, Table S2) stood at 2.1%; in test [2] (10 uM, Table S2), 100%.
For `COc1c2c(cc3occ(-c4ccc5c(c4)OCO5)c(=O)c13)OC(C)(C)C=C2` [METHYL ROBUSTONE, 3-(2H-1,3-benzodioxol-5-yl)-5-methoxy-8,8-dimethyl-4H,8H-pyrano[3,2-g]chromen-4-one], in that order: 2.5% and 68.2%.
For the compound `CC(C1OC(C)(C)C(O)C1O)C1CCC2(C)C3=CCC4C(C)(C)C(=O)CCC4(C)C3CCC12C` (centres unmarked) [ODORATONE, 14-[1-(3,4-dihydroxy-5,5-dimethyloxolan-2-yl)ethyl]-2,6,6,11,15-pentamethyltetracyclo[8.7.0.0^{2,7}.0^{11,15}]heptadec-9-en-5-one], the activity at 10 µM in test [1] (10 uM, Table S2) stood at 9.9%; in test [2] (10 uM, Table S2), 92.7%.
Regarding `CCN(CC)CCOc1ccc2c(c1)C(=O)c1cc(OCCN(CC)CC)ccc1-2` [TILORONE, 2,7-bis[2-(diethylamino)ethoxy]-9H-fluoren-9-one], the activity at 10 µM in test [1] (10 uM, Table S2) came to 7.8%; in test [2] (10 uM, Table S2), 89%.
For `COC(=O)CCC(C)C1CCC2C3CCC4CC(O)CCC4(C)C3CC(O)C12C` (centres unmarked) [METHYL DEOXYCHOLATE, methyl 4-{5,16-dihydroxy-2,15-dimethyltetracyclo[8.7.0.0^{2,7}.0^{11,15}]heptadecan-14-yl}pentanoate], in that order: 22.9% and 100%.
As for `O=C(O)CC[N+](=O)[O-]` [BOVINOCIDIN, 3-nitropropanoic acid], the activity at 10 µM came out at 14.1% in test [1] (10 uM, Table S2) and 88.6% in test [2].
In the case of `COc1cc2ccc(=O)oc2c(O)c1O` [FRAXETIN, 7,8-dihydroxy-6-methoxy-2H-chromen-2-one], the activity at 10 µM in test [1] (10 uM, Table S2) amounted to 8.1%; in test [2] (10 uM, Table S2), 100%.
Regarding `CCN(CCO)CCCC(C)Nc1ccnc2cc(Cl)ccc12` (centres unmarked) [HYDROXYCHLOROQUINE SULFATE, 2-({4-[(7-chloroquinolin-4-yl)amino]pentyl}(ethyl)amino)ethan-1-ol; sulfuric acid], the activity at 10 µM was 0.1% in test [1] (10 uM, Table S1) and 100% in test [2] (10 uM, Table S1). The pEC50 in test [1] is 5.33.
For `C=C1C2CCC3(C)C(c4ccoc4)OC(=O)CC13OC1CC(OC(C)=O)C(C)(C)C(CC(=O)OC)C12C` (centres unmarked) [methyl 2-[5-(acetyloxy)-13-(furan-3-yl)-6,6,8,12-tetramethyl-17-methylidene-15-oxo-2,14-dioxatetracyclo[7.7.1.0^{1,12}.0^{3,8}]heptadecan-7-yl]acetate], the activity at 10 µM in test [1] (10 uM, Table S2) is 1%; in test [2] (10 uM, Table S2), 84.1%.
Turning to `Clc1ccc2c(c1)C(N1CCNCC1)=Nc1ccccc1O2` [AMOXAPINE, 13-chloro-10-(piperazin-1-yl)-2-oxa-9-azatricyclo[9.4.0.0^{3,8}]pentadeca-1(15),3,5,7,9,11,13-heptaene], the activity at 10 µM worked out at 11.7% in test [1] (10 uM, Table S2) and 98% in test [2] (10 uM, Table S2).
Regarding `C=C(C)C1CCC2(CO)CCC3(C)C(CCC4C5(C)CCC(O)C(C)(C)C5CCC43C)C12` (centres unmarked) [BETULIN, 5-(hydroxymethyl)-1,2,14,18,18-pentamethyl-8-(prop-1-en-2-yl)pentacyclo[11.8.0.0^{2,10}.0^{5,9}.0^{14,19}]henicosan-17-ol], the activity at 10 µM in test [1] (10 uM, Table S2) came to 9.7%; in test [2] (10 uM, Table S2) it was 100%.
For `COc1c(-c2coc3cc4c(cc3c2=O)CC(OC(C)=O)C(C)(C)O4)ccc2c1C=CC(C)(C)O2` (centres unmarked) [MUNDULONE ACETATE], in that order: 4.6% and 76%.
Regarding `CN(C)CCCN1c2ccccc2Sc2ccc(Cl)cc21` [CHLORPROMAZINE, [3-(2-chloro-10H-phenothiazin-10-yl)propyl]dimethylamine], the activity at 10 µM in test [1] (10 uM, Table S2) was 14.2%; in test [2] (10 uM, Table S2), 99.3%.
Regarding `CCCCCCCC/C=C/CCCCCCCCOP(=O)([O-])OCC[N+](C)(C)C` [ELAIDYLPHOSPHOCHOLINE, (9E)-octadec-9-en-1-yl [2-(trimethylazaniumyl)ethyl] phosphate], the activity at 10 µM in test [1] (10 uM, Table S2) came to 5%; in test [2] (10 uM, Table S2), 93.7%.
Turning to `O=C(CCCN1CCC2(CC1)C(=O)NCN2c1ccccc1)c1ccc(F)cc1` [SPIPERONE, 8-[4-(4-fluorophenyl)-4-oxobutyl]-1-phenyl-1,3,8-triazaspiro[4.5]decan-4-one], the activity at 10 µM came out at 17.1% in test [1] (10 uM, Table S2) and 94.7% in test [2] (10 uM, Table S2).
As for `CCN(CC)C(=S)SSC(=S)N(CC)CC` [N,N-diethyl[(diethylcarbamothioyl)disulfanyl]carbothioamide], the activity at 10 µM is 0.3% in test [1] (10 uM, Table S1) and 0.1% in test [2] (10 uM, Table S1).
Regarding `CC(=O)OC1CCC2(C)C3=C(CCC2C1(C)C)C1(C)CCC(C(C)CCC=C(C)C)C1(C)CC3` (centres unmarked) [EUPHOL ACETATE, 2,6,6,11,15-pentamethyl-14-(6-methylhept-5-en-2-yl)tetracyclo[8.7.0.0^{2,7}.0^{11,15}]heptadec-1(10)-en-5-yl acetate], the activity at 10 µM came to 12% in test [1] (10 uM, Table S2) and 87.6% in test [2] (10 uM, Table S2).
Turning to `CC1CCC2C(C)C(=O)OC3OC4(C)CCC1C32OO4` (centres unmarked) [ARTEMISININ, 1,5,9-trimethyl-11,14,15,16-tetraoxatetracyclo[10.3.1.0^{4,13}.0^{8,13}]hexadecan-10-one], the activity at 10 µM is 17.5% in test [1] (10 uM, Table S2) and 77.6% in test [2] (10 uM, Table S2). In addition, in test [1], the pEC50 is 5.30.
As to `Clc1ccccc1C(c1ccccc1)(c1ccccc1)n1ccnc1` [CLOTRIMAZOLE, 1-[(2-chlorophenyl)diphenylmethyl]-1H-imidazole], the activity at 10 µM in test [1] (10 uM, Table S2) is 10.2%; in test [2] (10 uM, Table S2), 100%.
In the case of `C=CC(C1=CC(=O)C(OC)=CC1=O)c1ccc(O)cc1` (centres unmarked) [DALBERGIONE, 4-METHOXY-4'-HYDROXY-, 2-[1-(4-hydroxyphenyl)prop-2-en-1-yl]-5-methoxycyclohexa-2,5-diene-1,4-dione], the activity at 10 µM in test [1] (10 uM, Table S2) was 5.1%; in test [2] (10 uM, Table S2) it was 94.8%.
`CC(=O)[C@H]1CC[C@H]2[C@@H]3CC[C@H]4C[C@@H](O)CC[C@]4(C)[C@H]3CC[C@]12C` [ALLOPREGNANOLONE, 1-[(1S,2S,5S,7S,10R,11S,14S,15S)-5-hydroxy-2,15-dimethyltetracyclo[8.7.0.0^{2,7}.0^{11,15}]heptadecan-14-yl]ethan-1-one]: the activity at 10 µM in test [1] (10 uM, Table S2) is 3.7%; in test [2] (10 uM, Table S2), 100%.
`CC1=CC(=O)C2C(C)(C)CCCC2(C)C1(O)CCc1ccoc1` (centres unmarked) [SOLIDAGENONE, 4-[2-(furan-3-yl)ethyl]-4-hydroxy-3,4a,8,8-tetramethyl-1,4,4a,5,6,7,8,8a-octahydronaphthalen-1-one]: the activity at 10 µM in test [1] (10 uM, Table S2) came to 15.1%; in test [2] (10 uM, Table S2), 75.8%.
Take `C=CC(C)(O)CCC1C(=C)CC(O)C2C(C)(C)CCCC12C` (centres unmarked) [LARIXOL, 4-(3-hydroxy-3-methylpent-4-en-1-yl)-4a,8,8-trimethyl-3-methylidene-decahydronaphthalen-1-ol]: the activity at 10 µM in test [1] (10 uM, Table S2) worked out at 6.4%; in test [2] (10 uM, Table S2), 74%.
On to `COc1ccc(-c2cc(=O)c3ccccc3o2)cc1` [4'-METHOXYFLAVONE, 2-(4-methoxyphenyl)-4H-chromen-4-one], for which the activity at 10 µM was 18.7% in test [1] (10 uM, Table S2) and 100% in test [2] (10 uM, Table S2).
